Results published in patent US8026233B2, “P38 inhibitors and methods of use thereof” (Array BioPharma Inc., priority 2006, dated 2011).

How the values were obtained:
Details in all cases: stated in words only
[1] = target: p-glycoprotein (PGP) transporter (Homo sapiens, UniProt P08183); experiment: affinity for p-glycoprotein transporter
bioavailability = assay type: in vivo
first pass metabolism = experiment: first pass metabolism
hERG channel = hERG channel (Homo sapiens, UniProt Q12809); experiment: activity in the hERG channel
Chain of hERG channel (Q12809 whole entry): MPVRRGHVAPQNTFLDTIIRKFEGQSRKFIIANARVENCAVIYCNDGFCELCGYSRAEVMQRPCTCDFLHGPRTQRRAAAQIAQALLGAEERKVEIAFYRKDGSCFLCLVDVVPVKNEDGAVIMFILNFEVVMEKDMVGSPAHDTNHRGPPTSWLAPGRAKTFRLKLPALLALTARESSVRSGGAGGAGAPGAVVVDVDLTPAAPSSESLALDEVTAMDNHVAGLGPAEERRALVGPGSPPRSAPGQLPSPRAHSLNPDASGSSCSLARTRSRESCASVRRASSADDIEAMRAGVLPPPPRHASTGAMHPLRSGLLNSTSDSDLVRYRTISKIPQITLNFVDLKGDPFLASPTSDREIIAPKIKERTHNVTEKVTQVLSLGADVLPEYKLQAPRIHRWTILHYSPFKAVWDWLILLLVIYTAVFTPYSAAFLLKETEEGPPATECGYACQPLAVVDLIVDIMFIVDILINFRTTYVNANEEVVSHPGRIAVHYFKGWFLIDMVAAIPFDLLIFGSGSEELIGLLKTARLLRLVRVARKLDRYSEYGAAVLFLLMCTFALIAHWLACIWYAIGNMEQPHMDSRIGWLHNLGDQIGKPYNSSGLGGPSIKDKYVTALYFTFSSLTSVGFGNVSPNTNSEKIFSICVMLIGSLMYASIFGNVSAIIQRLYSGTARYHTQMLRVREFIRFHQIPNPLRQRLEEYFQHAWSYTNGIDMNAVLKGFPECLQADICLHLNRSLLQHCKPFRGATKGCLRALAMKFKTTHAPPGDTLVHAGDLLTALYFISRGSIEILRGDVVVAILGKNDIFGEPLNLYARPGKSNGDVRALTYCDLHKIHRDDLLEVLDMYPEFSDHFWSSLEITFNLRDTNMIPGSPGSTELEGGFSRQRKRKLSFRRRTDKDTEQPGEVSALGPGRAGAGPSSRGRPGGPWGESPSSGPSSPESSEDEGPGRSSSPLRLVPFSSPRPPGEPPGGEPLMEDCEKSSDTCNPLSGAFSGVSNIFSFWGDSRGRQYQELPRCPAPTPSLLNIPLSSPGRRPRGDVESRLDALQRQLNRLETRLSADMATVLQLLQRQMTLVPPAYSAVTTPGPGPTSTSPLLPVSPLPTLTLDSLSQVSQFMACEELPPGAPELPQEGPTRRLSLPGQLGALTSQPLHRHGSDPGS

Chain of p-glycoprotein (PGP) transporter (P08183 whole entry): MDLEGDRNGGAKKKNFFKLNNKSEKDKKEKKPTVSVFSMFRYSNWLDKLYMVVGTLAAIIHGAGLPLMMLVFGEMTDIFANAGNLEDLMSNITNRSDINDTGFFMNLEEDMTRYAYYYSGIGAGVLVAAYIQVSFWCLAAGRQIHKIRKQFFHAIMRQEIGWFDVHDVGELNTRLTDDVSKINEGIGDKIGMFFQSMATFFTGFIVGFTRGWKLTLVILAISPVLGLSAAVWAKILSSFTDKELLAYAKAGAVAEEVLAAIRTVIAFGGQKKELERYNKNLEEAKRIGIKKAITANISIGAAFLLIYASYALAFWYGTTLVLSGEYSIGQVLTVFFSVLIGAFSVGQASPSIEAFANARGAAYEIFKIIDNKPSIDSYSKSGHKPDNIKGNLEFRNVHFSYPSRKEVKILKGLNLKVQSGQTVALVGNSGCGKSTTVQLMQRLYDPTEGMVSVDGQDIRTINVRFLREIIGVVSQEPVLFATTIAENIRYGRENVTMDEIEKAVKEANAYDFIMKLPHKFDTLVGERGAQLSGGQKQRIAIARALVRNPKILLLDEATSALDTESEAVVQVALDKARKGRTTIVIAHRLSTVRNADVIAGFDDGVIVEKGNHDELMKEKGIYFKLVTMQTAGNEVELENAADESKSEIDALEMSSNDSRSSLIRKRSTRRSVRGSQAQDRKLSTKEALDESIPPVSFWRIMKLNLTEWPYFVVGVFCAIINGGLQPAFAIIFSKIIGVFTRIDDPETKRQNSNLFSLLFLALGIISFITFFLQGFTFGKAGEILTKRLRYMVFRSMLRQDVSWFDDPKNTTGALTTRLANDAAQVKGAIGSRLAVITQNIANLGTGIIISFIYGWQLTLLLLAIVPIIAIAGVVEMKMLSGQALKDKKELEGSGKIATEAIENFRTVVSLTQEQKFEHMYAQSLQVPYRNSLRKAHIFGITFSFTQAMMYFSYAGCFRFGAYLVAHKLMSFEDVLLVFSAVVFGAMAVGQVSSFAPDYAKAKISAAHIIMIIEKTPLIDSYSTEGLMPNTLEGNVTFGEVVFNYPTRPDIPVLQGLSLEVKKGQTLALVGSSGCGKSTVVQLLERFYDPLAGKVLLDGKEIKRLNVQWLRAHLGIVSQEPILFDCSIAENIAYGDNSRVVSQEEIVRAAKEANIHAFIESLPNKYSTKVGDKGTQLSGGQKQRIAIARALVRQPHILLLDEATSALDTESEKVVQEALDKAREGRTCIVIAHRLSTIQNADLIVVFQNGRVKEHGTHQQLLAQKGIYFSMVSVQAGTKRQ

CC(C)(F)Cn1ncc2cc(Oc3ccc(F)cc3F)c(C(=O)N[C@H]3CCNC3=O)cc21 [Example 27, (S)-5-(2,4-difluorophenoxy)-1-(2-fluoro-2-methylpropyl)-N-(2-oxopyrrolidin-3-yl)-1H-indazole-6-carboxamide]
affinity for p-glycoprotein (PGP) transporter (which affects cell permeability) [1]: low affinity
bioavailability (bioavailability): relatively good
first pass metabolism (first pass metabolism): relatively low
activity in the hERG channel (a predictor for cardiac side effects) (hERG channel): low activity
